The results in this text go back to patent US8822503B2, “2-pyridone compounds” (Taisho Pharmaceutical Co., Ltd, priority 2009, dated 2014).

The target in the test is T1, human liver GK (Homo sapiens, UniProt P35557).
T1 construct: GST (glutathione S-transferase) (N); made in house; host or cells: E. coli
T1 sequence (P35557 1-466 isoform P35557-2): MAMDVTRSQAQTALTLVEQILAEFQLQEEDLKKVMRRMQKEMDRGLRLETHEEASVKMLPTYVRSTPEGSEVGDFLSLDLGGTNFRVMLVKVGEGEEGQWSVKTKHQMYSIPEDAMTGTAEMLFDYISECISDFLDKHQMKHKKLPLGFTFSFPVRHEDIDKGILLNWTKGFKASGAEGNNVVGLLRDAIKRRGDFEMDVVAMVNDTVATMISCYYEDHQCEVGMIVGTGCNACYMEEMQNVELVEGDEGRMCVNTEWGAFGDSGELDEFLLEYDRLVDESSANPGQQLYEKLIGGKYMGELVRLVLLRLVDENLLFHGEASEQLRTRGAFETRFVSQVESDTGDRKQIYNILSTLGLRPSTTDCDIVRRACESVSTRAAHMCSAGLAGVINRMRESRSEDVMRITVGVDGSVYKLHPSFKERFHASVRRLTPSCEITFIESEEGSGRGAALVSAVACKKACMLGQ
Briefly: GK activation test. As to conditions: test compound concentration needed to activate 50% of maximum activation ability; 4 mM 14C-labeled glucose, 2 mM ATP, room temperature, 20 minutes. The test is classed as biochemical. In short, it runs like this: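 GST-tagged human liver GK from E. coli (0.24 μg/well) with 4 mM 14C-glucose, 2 mM ATP in Hepes-KOH pH 7.1, KCl, MgCl2, DTT, 1% DMSO, 20 min room temperature. Labeled glucose 6-phosphate captured on anion resin, eluted and counted. EC50 = concentration giving half of maximal activation.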
`CCOc1ccc(/C(=C\[C@H]2CCC(=O)N2)c2ccc(C3CC3)c(=O)[nH]2)cc1F` [Example 4-284, 3-Cyclopropyl-6-{(E)-1-(4-ethoxy-3-fluorophenyl)-2-[(2R)-5-oxopyrrolidin-2-yl]ethenyl}pyridin-2(1H)-one]: the EC50 was 10 to 500 nM. `CCc1ccc(/C(=C\[C@H]2CCC(=O)N2)c2ccc(C3CC3)c(=O)[nH]2)cc1` [Example 4-5, 3-Cyclopropyl-6-{(E)-1-(4-ethylphenyl)-2-[(2R)-5-oxopyrrolidin-2-yl]ethenyl}pyridin-2(1H)-one] yielded an EC50 of 10 to 500 nM.

Regarding `O=C1CC[C@H](/C=C(\c2ccc(OCc3ccccc3)cc2)c2ccc(Cl)c(=O)[nH]2)N1` [Example 4-154, 6-{(E)-1-[4-(Benzyloxy)phenyl]-2-[(2R)-5-oxopyrrolidin-2-yl]ethenyl}-3-chloropyridin-2(1H)-one], the EC50 lay in the range of 500 to 3000 nM.

`C[C@H](/C=C(\c1ccc(S(=O)(=O)C2CC2)cc1)c1ccc(C(F)(F)F)c(=O)[nH]1)CO` [Example 1-102, 6-{(1E,3R)-1-[4-(Cyclopropylsulfonyl)phenyl]-4-hydroxy-3-methylbut-1-en-1-yl}-3-(trifluoromethyl)pyridin-2(1H)-one]: the EC50 lay within 500 to 3000 nM. Consider `O=C1CC[C@H](/C=C(\c2cccc(SC3CC3)c2)c2ccc(Cl)c(=O)[nH]2)N1` [Example 4-36, 3-Chloro-6-{(E)-1-[3-(cyclopropylsulfanyl)phenyl]-2-[(2R)-5-oxopyrrolidin-2-yl]ethenyl}pyridin-2(1H)-one], for which the EC50 lay in the range of 3000 to 10000 nM.

`O=C1CC[C@H](/C=C(\c2ccc(Cl)c(OC(F)F)c2)c2ccc(C3CC3)c(=O)[nH]2)N1` [Example 4-130, 6-{(E)-1-[4-Chloro-3-(difluoromethoxy)phenyl]-2-[(2R)-5-oxopyrrolidin-2-yl]ethenyl}-3-cyclopropylpyridin-2(1H)-one] returned an EC50 of 500 to 3000 nM. `CCSc1ccc(/C(=C\C2CCCC2)c2ccc(C)c(=O)[nH]2)cc1` [Example 1-9, 6-{(E)-2-Cyclopentyl-1-[4-(ethylsulfanyl)phenyl]ethenyl}-3-methylpyridin-2(1H)-one] yielded an EC50 of 10 to 500 nM. Consider `CCOc1ccc(/C(=C\[C@H]2CCC(=O)N2)c2ccc(C3CC3)c(=O)[nH]2)c(F)c1F` [Example 4-282, 3-Cyclopropyl-6-{(E)-1-(4-ethoxy-2,3-difluorophenyl)-2-[(2R)-5-oxopyrrolidin-2-yl]ethenyl}pyridin-2(1H)-one], for which the EC50 is 10 to 500 nM.

The molecule `CC(=O)Nc1ccc(/C(=C\C2CCCC2)c2ccc(Cl)c(=O)[nH]2)cc1` [Example 1-105, N-{4-[(E)-1-(5-Chloro-6-oxo-1,6-dihydropyridin-2-yl)-2-cyclopentylethenyl]phenyl}acetamide] yielded a half-maximal effective concentration (EC50) of 500 to 3000 nM.

Turning to `CCOc1ccc(/C(=C\[C@H]2CCC(=O)N2)c2ccc(Cl)c(=O)[nH]2)cc1C` [Example 4-50, 3-Chloro-6-{(E)-1-(4-ethoxy-3-methylphenyl)-2-[(2R)-5-oxopyrrolidin-2-yl]ethenyl}pyridin-2(1H)-one], the EC50 fell in the range of 500 to 3000 nM. Molecule `CCc1ccc(/C(=C/C2CCCC2)c2ccc(SCCCO)cc2)[nH]c1=O` [Example 1-12, 6-[(E)-2-Cyclopentyl-1-{4-[(3-hydroxypropyl)sulfanyl]phenyl}ethenyl]-3-ethylpyridin-2(1H)-one] came in with an EC50 of 10 to 500 nM. In turn, `CC(C)(C)c1ccc(/C(=C\CN2CCCCC2=O)c2ccc(Cl)c(=O)[nH]2)cc1` [Example 6-4, 6-[(1E)-1-(4-tert-Butylphenyl)-3-(2-oxopiperidin-1-yl)prop-1-en-1-yl]-3-chloropyridin-2(1H)-one] came in with a concentration for a half-maximal effect (EC50) of 500 to 3000 nM. The same measure for `O=C1CC[C@H](CC(c2ccc(S(=O)(=O)C3CC3)c(Cl)c2)c2ccc(C3CC3)c(=O)[nH]2)N1` (single isomer, unassigned) [Example 4-343]: 3000 to 10000 nM; for `CCN(CC)CCCOc1ccc(/C(=C\[C@H]2CCC(=O)N2)c2ccc(C3CC3)c(=O)[nH]2)cc1` [Example 4-65, 3-Cyclopropyl-6-{(E)-1-{4-[3-(diethylamino)propoxy]phenyl}-2-[(2R)-5-oxopyrrolidin-2-yl]ethenyl}pyridin-2(1H)-one]: 500 to 3000 nM; for `O=C1CC[C@H](/C=C(\c2ccc3ccccc3c2)c2ccc(Cl)c(=O)[nH]2)N1` [Example 4-149, 3-Chloro-6-{(E)-1-(naphthalen-2-yl)-2-[(2R)-5-oxopyrrolidin-2-yl]ethenyl}pyridin-2(1H)-one]: 500 to 3000 nM. Under `CCc1ccc(/C(=C/C2CCCC2)c2ccc(SC)c(Cl)c2)[nH]c1=O` [Example 1-20, 6-{(E)-1-[3-Chloro-4-(methylsulfanyl)phenyl]-2-cyclopentylethenyl}-3-ethylpyridin-2(1H)-one] stands 10 to 500 nM; under `O=C1CC[C@H](/C=C(\c2ccc(Cl)c(C(F)(F)F)c2)c2ccc(C3CC3)c(=O)[nH]2)N1` [Example 4-105, 6-{(E)-1-[4-Chloro-3-(trifluoromethyl)phenyl]-2-[(2R)-5-oxopyrrolidin-2-yl]ethenyl}-3-cyclopropylpyridin-2(1H)-one], 10 to 500 nM; under `O=C1CC[C@H](CC(c2ccc(C(F)(F)F)cc2)c2ccc(C3CC3)c(=O)[nH]2)N1` (single isomer, unassigned) [Example 4-248], 500 to 3000 nM. Turning to `CC(C)(C)c1ccc(/C(=C\[C@H]2CCC(=O)N2)c2cccc(=O)[nH]2)cc1` [Example 4-186, 6-{(E)-1-(4-tert-Butylphenyl)-2-[(2R)-5-oxopyrrolidin-2-yl]ethenyl}pyridin-2(1H)-one], the EC50 was 500 to 3000 nM. Consider `O=C1CC[C@H](/C=C(\c2ccc(S(=O)(=O)C3CCCC3)cc2)c2ccc(Cl)c(=O)[nH]2)N1` [Example 4-60, 3-Chloro-6-{(E)-1-[4-(cyclopentylsulfonyl)phenyl]-2-[(2R)-5-oxopyrrolidin-2-yl]ethenyl}pyridin-2(1H)-one], for which the EC50 lay in the range of 10 to 500 nM. `CS(=O)(=O)c1ccc(/C(=C\CCO)c2ccc(C3CC3)c(=O)[nH]2)cc1` [Example 1-93, 3-Cyclopropyl-6-{(1E)-4-hydroxy-1-[4-(methylsulfonyl)phenyl]but-1-en-1-yl}pyridin-2(1H)-one] returned an EC50 of 3000 to 10000 nM. Molecule `O=C1CC[C@H](CC(c2ccc(C3CC3)c(=O)[nH]2)c2ccc(Cl)cc2F)N1` (single isomer, unassigned) [Example 4-334] came in with an EC50 of 500 to 3000 nM.
